{"source": "paper PMC12123727", "about": "(BMC Cancer, 2025)", "origin": "cited, not measured here", "key": {"r/r FL": {"system": "r/r FL", "conditions": "patients with r/r FL, cited from earlier work"}, "DLBCL": {"system": "DLBCL", "conditions": "patients with DLBCL, 2/19; cited from earlier work"}}, "data": [{"compound": "O=C(CCCCCCC(=O)Nc1ccccc1)NO", "note": "[Vorinostat, vorinostat]", "values": [{"measurement": "objective response rate (ORR)", "setting": "r/r FL; 19/39", "result": 49, "unit": "%"}, {"measurement": "median PFS", "setting": "r/r FL", "result": 20, "unit": "months"}]}, {"compound": "O=C(/C=C/c1cccc(S(=O)(=O)Nc2ccccc2)c1)NO", "note": "[Belinostat, belinostat]", "values": [{"measurement": "ORR", "setting": "DLBCL", "result": 10.5, "unit": "%"}]}]}
